Laboratory results published in the NIST ThermoML archive (doi:10.1007/s10765-018-2359-2).
Numbers after ± are expanded uncertainties.

What was measured:
[1] = 100 kPa, Liquid; for thermal conductivity: transient hot wire
[2] = xn = mol fraction of the nth substance listed; conditions: 100 kPa, Liquid; for thermal conductivity: transient hot wire

O [water]
[1]
Conditions | thermal conductivity [W/m/K]
302.39 K | 0.6187 ± 0.025
314.31 K | 0.6334 ± 0.025
333.54 K | 0.656 ± 0.026
353.53 K | 0.67 ± 0.027

CCOP(=O)([O-])OCC.CCn1cc[n+](C)c1 [1-ethyl-3-methylimidazolium diethyl phosphate] + O
[2]
Conditions | mass density, x1 = 0.2 [kg/m3] | mass density, x1 = 0.4 [kg/m3] | mass density, x1 = 0.6 [kg/m3] | mass density, x1 = 0.8 [kg/m3] | mass density, x1 = 1 [kg/m3] | thermal conductivity, x1 = 0.2 [W/m/K] | thermal conductivity, x1 = 0.4 [W/m/K] | thermal conductivity, x1 = 0.6 [W/m/K] | thermal conductivity, x1 = 0.8 [W/m/K] | thermal conductivity, x1 = 1 [W/m/K]
303.15 K | 1133.7 ± 10 | 1137.4 ± 10 | 1139.3 ± 10 | 1143.2 ± 10 | 1144.9 ± 10 | – | – | – | – | –
313.15 K | 1126 ± 10 | 1131.3 ± 10 | 1133.3 ± 10 | 1137.2 ± 10 | 1139.2 ± 10 | 0.2341 ± 0.0094 | 0.1964 ± 0.0079 | 0.1849 ± 0.0074 | 0.1783 ± 0.0072 | 0.1745 ± 0.0071
333.15 K | 1112.4 ± 10 | 1118.3 ± 10 | 1121.1 ± 10 | 1124.4 ± 10 | 1127.2 ± 10 | – | – | – | – | –
353.15 K | 1098.8 ± 10 | 1105.7 ± 10 | 1108.9 ± 10 | 1118 ± 10 | 1115.2 ± 10 | – | – | – | – | –

CCOP(=O)([O-])OCC.CCn1cc[n+](C)c1 [1-ethyl-3-methylimidazolium diethyl phosphate]
[1]
Conditions | mass density [kg/m3] | thermal conductivity [W/m/K]
303.15 K | 1144.9 ± 10 | –
313.15 K | 1139.2 ± 10 | 0.1745 ± 0.0071
333.15 K | 1127.2 ± 10 | –
353.15 K | 1115.2 ± 10 | –
